In US20260306500A1, “METHOD OF INHIBITING ADENOSINE TRIPHOSPHATE SECRETION, METHOD OF INHIBITING HEPATIC STELLATE CELL ACTIVATION, METHOD OF DEACTIVATING HEPATIC STELLATE CELL, METHOD OF TREATING HEPATIC FIBROSIS, METHOD OF TREATING NON-ALCOHOLIC STEATOHEPATITIS, AND METHOD OF TREATING PSORIASIS” (Kurume University, priority 2023, published 2026):

How the values were obtained:
[1] = system: human epidermal keratinocytes; test: ATP secretion from human epidermal keratinocytes promoted by ionomycin; type: cell-based; details: for ATP secretion level relative to control solution (RLU ratio): 1 μM imeglimin, N=3 (FIG. 4)
Experimental: Human epidermal keratinocytes (Cryopreserved HEK, Lot 1758, Cell Applications Inc.) were cultured using an Epivita Keratinocyte Growth Medium Kit according to the manufacturer's instructions. The procedure was as follows. A supplement medium was added to a hydrocortisone-containing basal medium included in the medium preparation kit to prepare a complete medium. The medium in the dish was removed by aspiration. The cells were washed with 5 ml of BSS (Gbco), and then the BSS was removed by aspiration. After addition of 5 to 6 ml of trypsin/EDTA solution (Gbco), the dish was incubated at 37° C. for 2 minutes. After addition of 5 ml of trypsin neutralization solution, the resulting cell suspension was transferred into two 15-ml Falcon tubes, and centrifuged at 200×g for 5 minutes. The supernatant was removed by aspiration, and the pelleted cell cluster was suspended in 2 ml of the medium at 4.5×10^5 cells/ml. An aliquot of the resulting cell suspension was cryopreserved, while another aliquot was cultured and subjected to measurement.
ATP secretion by human epidermal keratinocytes (hereinafter referred to as “keratinocytes”) was measured. Regarding control solutions, Krebs-Ringer HEPES supplemented with 0.2% BSA and 25 mM glucose (hereinafter also referred to as “Krebs/Iono(−)”) was used as a negative control, and a solution prepared by adding 5 μM ionomycin to this solution (hereinafter also referred to as “Krebs/Iono(+)”) was used as a positive control for ATP secretion. Ionomycin is a Ca^2+ ionophore. Addition of ionomycin to cells is known to promote influx of extracellular Ca^2+ into the cells to increase the intracellular Ca^2+ concentration, resulting in enhancement of ATP secretion. Test solutions were prepared by adding clodronate to Krebs/Iono(−) or Krebs/Iono(+) to a final concentration of 0.1 μM (hereinafter also referred to as “Clo/Iono(−)” or “Clo/Iono(+)”, respectively) (N=3).
Keratinocytes were cultured at 2.5×10^4 cells/well in a 24-well plate at 37° C. in 5% CO2 for 4 days. The medium was removed by aspiration, replaced with Krebs/Iono(−) or Clo/Iono(−), and incubated at 37° C. for 6 hours. These solutions were then removed by aspiration, and the content of each well incubated with Krebs/Iono(−) was replaced with 300 μl of a control solution (Krebs/Iono(−) or Krebs/Iono(+)), while the content of each well incubated with Clo/Iono(−) was replaced with 300 μl of a test solution (Clo/Iono(−) or Clo/Iono(+)). After further incubation at 37° C. for 20 minutes, 200 μl of the supernatant was collected. The collected supernatant was immediately treated on a heat block at 95° C. for 10 minutes, to inactivate ectonucleotidase. ATP in the supernatant was quantified using a Dojindo ATP assay kit−Luminescence (manufactured by Dojindo Laboratories).
Keratinocytes were cultured in the same manner as in Example 1, and ATP secretion from the keratinocytes was measured. Krebs/Iono(−), or a solution prepared by adding 10 μM imeglimin, 0.1 μM eicosapentaenoic acid (EPA), 1 μM EPA, or 10 μM clodronate to Krebs/Iono(−) was used (N=4).
After culturing keratinocytes, the medium was removed by aspiration, and replaced with Krebs/Iono(−), or Krebs/Iono(−) supplemented with 10 μM imeglimin, 0.1 μM EPA, 1 μM EPA, or 10 μM clodronate, followed by incubation for 6 hours. Subsequently, the solution was replaced with either a control solution (Krebs/Iono(−) or Krebs/Iono(+)) or a test solution (Krebs/Iono(+) supplemented with 10 μM imeglimin, 0.1 μM EPA, 1 μM EPA, or 10 μM clodronate), followed by incubation at 37° C. for 20 minutes and then collection of 200 μl of the supernatant. The collected supernatant was immediately treated on a heat block at 95° C. for 10 minutes to inactivate ectonucleotidase. ATP in the supernatant was quantified using a Dojindo ATP assay kit—Luminescence (manufactured by Dojindo Laboratories). […]

[2] = system: macrophages (THP-1 cells); test: ATP secretion from macrophages differentiated from THP-1 cells upon LPS stimulation; type: cell-based, human; details: 10 μM, 10 μg/ml LPS, N=10 (FIG. 9)
Experimental: Human acute monocytic leukemia cells (THP-1 cells (ACTT)) were cultured in accordance with Reference D. THP-1 cells were cultured in RPMI1640 medium supplemented with 10% fetal bovine serum (FBS), 100 units/ml penicillin, and 100 μg/ml streptomycin at 37° C. in 5% CO2 for 1 day. Further, THP-1 cells were cultured in RPMI1640 medium supplemented with 1 μg/ml Escherichia coli serotype 055:B5 (manufactured by Sigma-Aldrich) and 1000 units/ml mouse IFN-γ (manufactured by R&D Systems) at 37° C. in 5% CO2 for 1 day, to allow differentiation into macrophages.
The differentiated macrophages were cultured in RPMI1640 medium supplemented with 1 mg/ml Escherichia coli serotype 055:B5 (manufactured by Sigma-Aldrich) and 1000 units/ml mouse IFN-γ (manufactured by R&D Systems) at 2.5×10^4 cells/well in a 24-well plate at 37° C. in 5% CO2 for 4 days. The medium was replaced with HBSS (manufactured by Gibco) supplemented with imeglimin or clodronate), and then LPS (10 μg/ml) was added thereto, followed by further performing incubation for 10 minutes and then collection of 200 μl of the supernatant. The supernatant was immediately treated on a heat block at 95° C. for 10 minutes, and ATP in the supernatant was quantified using an ATP assay kit−Luminescence (manufactured by Dojindo) (N=10).

[3] = system: α-SMA-positive cells (stellate cells) in mouse liver; test: TAA-induced activation of HSCs in mice: α-SMA immunostaining of liver sections; type: in vivo
Excerpt: For immunohistochemical analysis, liver samples were fixed in 4% paraformaldehyde, embedded in paraffin, and then sectioned. The sections were stained with HE or PSR. In addition, the paraffin-embedded sections were subjected to immunostaining using an α-SMA monoclonal antibody (1:500, catalog No. A5228, manufactured by Sigma-Aldrich) and an F4/80 monoclonal antibody (1:200, catalog No. MCA497GA, manufactured by AbD Serotec). The cell specimens were observed using a microscope (BZ-X700 series, manufactured by Keyence) or a confocal laser microscope (FV1000, manufactured by Olympus Corporation). The number of F4/80-positive cells was counted in four high-power fields per section. The α-SMA-positive area and the PSR-positive area were quantified using the image analysis software Fiji-ImageJ (1.54f).
In accordance with Example 15, immunostaining of α-SMA in liver sections and observation by fluorescence microscopy were performed for the normal control group, the TAA group, and the TAA+IMG group, and for a TAA+Clo group, which was treated in the same manner as the TAA+IMG group except that clodronate, instead of imeglimin, was administered at 30 mg/kg by blending it in the drinking water from 1 week after the start of TAA administration.

Row | SMILES | ATP secretion inhibitory effect ([1]; PEP at not less than 3 mM (data not shown)) | ATP secretion level promoted by ionomycin ([1]; 0.1 μM clodronate, 6 h preincubation, 5 μM ionomycin, N=3 (FIG. 1)) | LPS-induced ATP secretion from macrophages [2] | TAA-induced increase in α-SMA-positive reaction ([3]; 30 mg/kg clodronate in drinking water (FIG. 29)) | ATP secretion inhibitory effect at low concentration ([1]; 0.1 μM, 6 h preincubation, ionomycin) | ATP secretion level relative to control solution (RLU ratio) ([1]; incubation time 2 hours, ionomycin) | ATP secretion level relative to control solution (RLU ratio) ([1]; incubation time 6 hours, ionomycin) | ATP secretion inhibitory effect, comparison ([1]; 10 μM imeglimin vs 1 μM EPA and 10 μM clodronate) | ATP secretion inhibitory effect relative to metformin ([1]; 0.1, 1, 10 μM, 6 h preincubation, N=3 (FIG. 3)) | α-SMA immunostaining, effect compared with clodronate ([3]; imeglimin 200 mg/kg p.o. (FIG. 30))
1 | C=C(OP(=O)(O)O)C(=O)O [PEP, phosphoenolpyruvic acid] | relatively strong ATP secretion inhibitory effect |  |  |  |  |  |  |  |  | 
2 | O=P(O)(O)C(Cl)(Cl)P(=O)(O)O [clodronate] |  | almost the same as those in Krebs/Iono(−) and Clo/Iono(−) | strongly inhibited | markedly suppressed |  |  |  |  |  | 
3 | C[C@@H]1N=C(N)NC(N(C)C)=N1 [imeglimin] |  |  | strongly inhibited |  | exhibit an ATP secretion inhibitory effect | about 85% | about 40% | comparable to those of 1 μM EPA and 10 μM clodronate | slightly higher ATP secretion inhibitory effect than metformin | effect similar to that of clodronate
